Legend:
GSK-3αβ = assay: GSK-3 kinase inhibition (GS-1 substrate); conditions: read-out: IC50 μM Kinases GSK3, buffer A, 30° C., 15 μM ATP
HCT 116 (colon) = assay: Cytotoxicity on human cells, automated nuclei counting: HCT 116; type: cell-based; conditions: HCT 116 cells, exposed 24 h to 48 h, 0.1 to 25 μM
Outline: (§1)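 4.10^3 cells per well were allowed 24 hours to attach, spread and proliferate, then exposed to increasing concentrations of test molecules, with DMSO dilutions (maximum 1% DMSO) as controls. Cultures were kept in DMEM or RPMI with 10% fetal calf serum at 37° C, 5% CO2; cytotoxicity was scored by automated image analysis.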

Huh7 (liver) = assay: Cytotoxicity on human cells, automated nuclei counting: Huh7; type: cell-based; conditions: Huh-7, exposed 24 h to 48 h, 0.1 to 25 μM
Outline: as §1

Caco (colon) = assay: Cytotoxicity on human cells, automated nuclei counting: Caco; type: cell-based; conditions: exposed 24 h to 48 h, 0.1 to 25 μM
Outline: as §1

CDK5/D25 = target: T1, CDK5/D25 (Homo sapiens, UniProt Q00535); assay: CDK5 kinase inhibition (33P-ATP, histone H1); type: biochemical; conditions: buffer C, 30° C., 15 μM ATP, read-out: IC50 μM Kinases CDK5
T1 construct: made in house
Outline: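 Kinase reactions ran in buffer C (25 mM Mops pH 7.2, 15 mM MgCl2, 1 mM DTT, phosphatase inhibitors) with [33P]-ATP for 30 min at 30° C. Phosphorylated substrate was captured on P81 phosphocellulose filters, washed in phosphoric acid and counted by scintillation.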

fibroblast = assay: Cytotoxicity on human cells, automated nuclei counting: fibroblast; type: cell-based; conditions: exposed 24 h to 48 h, 0.1 to 25 μM
Outline: as §1

MDA-MB 231 (breast) = assay: Cytotoxicity on human cells, automated nuclei counting: MDA-MB 231; type: cell-based; conditions: MDA-MB 231 cells, exposed 24 h to 48 h, 0.1 to 25 μM
Outline: as §1

NCI (lung) = assay: Cytotoxicity on human cells, automated nuclei counting: NCI; type: cell-based; conditions: exposed 24 h to 48 h, 0.1 to 25 μM
Outline: as §1

DYRK1A = DYRK1A (Homo sapiens, UniProt Q13627); assay: DYRK1A kinase inhibition (Woodtide substrate)
PC3 (prostate) = assay: Cytotoxicity on human cells, automated nuclei counting: PC3; type: cell-based; conditions: PC-3, exposed 24 h to 48 h, 0.1 to 25 μM
Outline: as §1

T1 sequence (Q00535 whole entry): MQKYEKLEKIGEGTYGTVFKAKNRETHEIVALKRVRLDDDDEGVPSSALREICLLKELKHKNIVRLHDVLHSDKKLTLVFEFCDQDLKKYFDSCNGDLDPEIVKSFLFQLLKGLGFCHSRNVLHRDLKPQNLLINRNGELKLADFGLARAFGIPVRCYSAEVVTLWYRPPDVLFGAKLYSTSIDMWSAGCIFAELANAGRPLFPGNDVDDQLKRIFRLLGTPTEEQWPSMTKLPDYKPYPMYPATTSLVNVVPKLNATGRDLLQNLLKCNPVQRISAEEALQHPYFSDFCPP
T1 sequence (Q15078 99-307 partner limits assumed): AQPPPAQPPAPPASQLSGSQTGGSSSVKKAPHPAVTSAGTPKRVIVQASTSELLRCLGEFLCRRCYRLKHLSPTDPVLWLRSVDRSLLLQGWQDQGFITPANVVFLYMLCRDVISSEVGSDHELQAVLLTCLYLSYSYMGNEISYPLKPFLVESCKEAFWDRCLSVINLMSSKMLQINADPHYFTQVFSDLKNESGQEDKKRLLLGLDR

Compound | IC50 (GSK-3αβ) [µM] | IC50 (CDK5/D25) [µM] | IC50 (DYRK1A) [µM] | melting point [°C] | IC50 (HCT 116 (colon)) [µM] | IC50 (Huh7 (liver)) [µM] | IC50 (Caco (colon)) [µM] | IC50 (fibroblast) [µM] | IC50 (MDA-MB 231 (breast)) [µM] | IC50 (NCI (lung)) [µM] | IC50 (PC3 (prostate)) [µM]
O=C1c2cccc(NC(=S)Nc3cc[nH]n3)c2C2CCCCN12 (centres unmarked) [Compound 64, 1-(6-Oxo-1,2,3,4,6,10b-hexahydropyrido[2,1-a]isoindol-10-yl)-3-(1H-pyrazol-3-yl)thiourea] | 16 | 56 | ≥ 100 | 208 | 20 | 8 | 20 | > 25 | 25 | 25 | 6
Cc1nc(NC(=O)Nc2cccc3c2C2CCCCN2C3=O)cs1 (centres unmarked) [Compound 35, 1-(2-Methylthiazol-4-yl)-3-(6-oxo-1,2,3,4,6,10b-hexahydropyrido[2,1-a]isoindol-10-yl)urea] | 0.12 | 0.53 | > 10 | 146 | 0.6 | 0.9 | 0.7 | 0.4 | 1.5 | 3 | 1.5
O=C(Nc1csc(-c2ccncc2)n1)Nc1cccc2c1C1CCCCN1C2=O (centres unmarked) [Compound 37, 1-(6-Oxo-1,2,3,4,6,10b-hexahydropyrido[2,1-a]isoindol-10-yl)-3-(2-(pyridin-4-yl)thiazol-4-yl)urea] | 0.13 | 1.7 | 2.4 | 152 | 0.7 | 2 | 1.5 | 3 | 1.5 | 4 | 1
Cc1cc(NC(=O)Nc2cccc3c2C2CCCCN2C3=O)no1 (centres unmarked) [Compound 24, 1-(5-Méthylisoxazol-3-yl)-3-(6-oxo-1,2,3,4,6,10b-hexahydropyrido[2,1-a]isoindol-10-yl)urea] | 0.033 | 2.7 | > 10 | 156 | 2 | 3 | 3 | 12 | 3 | 10 | 6
COc1cc(NC(=O)Nc2cccc3c2C2CC4(CCN2C3=O)OCCO4)nc2ccccc12 (centres unmarked) [Compound 48] | 1 | > 10 | > 10 | 258 to 260 | 8 | 8 | > 25 | 20 | 4 | 20 | 8
O=C(Nc1cscn1)Nc1cccc2c1C1CCCCN1C2=O (centres unmarked) [Compound 26, 1-(6-Oxo-1,2,3,4,6,10b-hexahydropyrido[2,1-a]isoindol-10-yl)-3-(thiazol-4-yl)urea] | 0.76 | 0.43 | > 10 | 178 to 180 | 0.8 | 1.2 | 0.8 | 4 | 0.4 | 5 | 2
O=C(Nc1ccc(Br)cn1)Nc1cccc2c1C1CCCCN1C2=O (centres unmarked) [Compound 18, 1-(5-Bromopyridin-2-yl)-3-(6-oxo-1,2,3,4,6,10b-hexahydropyrido[2,1-a]isoindol-10-yl)urea] | 0.076 | 0.13 | 21 | 225 | > 25 | > 25 | > 25 | > 25 | > 25 | > 25 | > 25
O=C(Nc1cccc(Br)n1)Nc1cccc2c1C1CCCCN1C2=O (centres unmarked) [Compound 19, 1-(6-Bromopyridin-2-yl)-3-(6-oxo-1,2,3,4,6,10b-hexahydropyrido[2,1-a]isoindol-10-yl)urea] | 0.043 | 0.04 | 3.4 | 218 to 220 | > 25 | > 25 | > 25 | > 25 | > 25 | > 25 | > 25
O=C(Nc1nc2ccccc2s1)Nc1cccc2c1C1CCCCN1C2=O (centres unmarked) [Compound 34, 1-(Benzo[d]thiazol-2-yl)-3-(6-oxo-1,2,3,4,6,10b-hexahydropyrido[2,1-a]-isoindol-10-yl)urea] | 3.5 | 16 | 88 | 260 | 0.5 | 0.6 | 0.7 | 2 | 1.5 | 4 | 1

The next lines start with results.

IC50 (GSK-3αβ) [µM] | IC50 (CDK5/D25) [µM] | IC50 (DYRK1A) [µM] | melting point [°C] | Compound | IC50 (HCT 116 (colon)) [µM] | IC50 (Huh7 (liver)) [µM] | IC50 (Caco (colon)) [µM] | IC50 (fibroblast) [µM] | IC50 (MDA-MB 231 (breast)) [µM] | IC50 (NCI (lung)) [µM] | IC50 (PC3 (prostate)) [µM]
2.5 | 19 | 22 | 142 | O=C1c2cccc(NC(=S)Nc3ccccn3)c2C2CC3(CCN12)SCCS3 (centres unmarked) [Compound 70, 1-(6′-Oxo-3′,4′,6′,10b′-tetrahydro-1′H-spiro[[1,3]dithiolane-2,2′-pyrido[2,1-a]isoindole]-10′-yl)-3-(pyridin-2-yl)thiourea] | 2 | 15 | 2 | 20 | 3 | 10 | > 25
> 10 | > 10 | > 10 | 185 | O=C1c2cccc(NC(=S)Nc3cc[nH]n3)c2C2CC3(CCN12)SCCS3 (centres unmarked) [Compound 71, 1-(6′-Oxo-3′,4′,6′,10b′-tetrahydro-1′H-spiro[[1,3]dithiolane-2,2′-pyrido[2,1-a]isoindole]-10′-yl)-3-(1H-pyrazol-3-yl)thiourea] | 7 | 20 | 15 | 25 | 15 | 15 | > 25
> 10 | > 10 | ≥ 100 | 212 | O=C1c2cccc(NC(=S)Nc3ncccn3)c2C2CCCCN12 (centres unmarked) [Compound 65, 1-(6-Oxo-1,2,3,4,6,10b-hexahydropyrido[2,1-a]isoindol-10-yl)-3-(pyrimidin-2-yl)thiourea] | > 25 | > 25 | 20 | > 25 | 25 | > 25 | > 25
0.035 | 4.9 | > 10 | > 260 | COc1cc(NC(=O)Nc2cccc3c2C2CC(O)CCN2C3=O)nc2ccccc12 (centres unmarked) [Compound 109, 1-(2-Hydroxy-6-oxo-1,2,3,4,6,10b-hexahydropyrido[2,1-a]isoindol-10-yl)-3-(4-methoxyquinolin-2-yl)urea] | 1 | 1 | 15 | 5 | 6 | 1 | 5
